According to PubChem BioAssay AID1996:
≈ marks a conversion by molar mass, not a printed value.

Conditions: buffer; pH 7.4; 200.0 µM

Point of comparison: `COc1ccccc1NC(=O)Nc1cccc(NC(C)=O)c1`, solubility kinetic 34.2 µg/mL (≈ 114 µM). Against it:
- Cc1cc(=O)oc2cc(OCC(=O)NC3CCCCC3)ccc12 — 4.6-fold lower, 7.5 µg/mL (≈ 23.8 µM)
- O=C(NCc1cccnc1)c1ccc([N+](=O)[O-])cc1 — higher, > 38.6 µg/mL
- CCN1C(=O)/C(=C\c2ccncc2)SC1=S — 5.5-fold lower, 6.2 µg/mL (≈ 24.8 µM)
- Cc1ccc(Cl)cc1N1C(=O)CC(Sc2ncccn2)C1=O (stereo unspecified) — higher, > 50.1 µg/mL
- Cc1cccc(NC(=O)N2CCCCCC2)c1C — higher, > 37 µg/mL
- CCCCN(CC)C(=O)c1cc2c(=O)[nH]c3ccc(C)cc3c2s1 — 68-fold lower, 0.5 µg/mL (≈ 1.46 µM)
- Fc1cccc(C2CCCCN2Cc2nc(C3CC3)no2)c1 (stereo unspecified) — 2-fold lower, 17.1 µg/mL (≈ 56.7 µM)
- Cc1cc(Cl)ccc1NC(=O)CCC(=O)N/N=C/c1cccnc1 — higher, > 51.7 µg/mL
- COc1ccc(CCN=C(N)NS(=O)(=O)c2ccc(C)c(C)c2)cc1OC — higher, > 58.7 µg/mL
- COc1ccc(NC(=O)c2ccc[n+]([O-])c2)cc1 — higher, > 36.6 µg/mL
- NC(=S)Nc1ccc(Cl)c(Cl)c1 — not separable, > 33.2 µg/mL
- Cl.NCCc1c[nH]c2ccc(O)cc12 — not separable, > 31.9 µg/mL
- O=C(NC1=NCCS1)C1CC(=O)N(c2ccc(Cl)cc2)C1 (stereo unspecified) — higher, > 48.6 µg/mL
- Cc1cc(C)c(C#N)c(SCc2ccccc2F)n1 — lower, < 0.3 µg/mL
- O=S(=O)(c1cc(Cl)ccc1Cl)N1CCN2CCCC2C1 (stereo unspecified) — within 1.5-fold, 47.5 µg/mL (≈ 142 µM)
- NS(=O)(=O)c1ccc(CNC(=O)c2ccncc2)cc1 — higher, > 43.7 µg/mL
- Cc1cccc(N(Cc2cc(=O)[nH]c3ccccc23)C(=O)C(C)C)c1 — within 1.5-fold, 36.3 µg/mL (≈ 109 µM)
- Nc1ccc(Oc2ccc3c(c2)C(=O)NC3=O)cc1 — within 1.5-fold, 35.5 µg/mL (≈ 140 µM)
- CC(Oc1ccccc1)C(=O)NC1CCCCCCC1 (stereo unspecified) — higher, > 41.3 µg/mL
- O=C(CSc1nccn1-c1ccccc1)NO — within 1.5-fold, 32.1 µg/mL (≈ 129 µM)
- CN(C)c1nc(N(C)C)nc(N(C#N)Cc2ccc(Cl)cc2)n1 — 110-fold lower, 0.3 µg/mL (≈ 0.904 µM)
- CSc1sc(C(=O)Nc2ccc(F)cc2F)c2c1C=CCC2 — 12-fold lower, 2.9 µg/mL (≈ 8.59 µM)
- COc1cc(-c2ccc(NC(C)=O)c(OC)c2)ccc1NC(C)=O — 3.4-fold lower, 10.1 µg/mL (≈ 30.8 µM)
- CCN1CCN(c2ccc(NC(=O)c3ccc(Br)o3)cc2)CC1 — higher, > 56.7 µg/mL
- Cl.Clc1ccc(CNCCCSc2ncccn2)cc1 — higher, > 49.5 µg/mL
- CCOc1ccc(N2C(=O)CC(=O)NC2=O)cc1 — higher, > 37.2 µg/mL
- Cc1cc(C(=O)COc2cccc([N+](=O)[O-])c2)c(C)n1C1CC1 — 5.5-fold lower, 6.2 µg/mL (≈ 19.7 µM)
- CN1CCN(CCCNC(=S)Nc2ccc(F)c(Cl)c2)CC1 — within 1.5-fold, 43 µg/mL (≈ 125 µM)
- NS(=O)(=O)c1cccc(NC(=O)COC(=O)c2ccccc2SCC(=O)N2CCCC2)c1 — higher, > 71.6 µg/mL
- C#CCn1c(C)cc(C)c(S(=O)(=O)c2ccccc2)c1=O — higher, > 45.2 µg/mL
- O=C(Cn1cnc2ccccc2c1=O)N1CCc2ccccc2C1 — higher, > 47.9 µg/mL
- C=CCNC(=O)COc1ccccc1C#N — not separable, > 32.4 µg/mL
- Nc1ccc(-c2c3ccccc3nc3ccccc23)cc1 — lower, < 0.3 µg/mL
- OC(CCNCCc1c[nH]c2ccccc12)C(F)(F)F (stereo unspecified) — within 1.5-fold, 35.8 µg/mL (≈ 125 µM)
- N#CC(C#N)=CNc1cccnc1 — not separable, > 25.5 µg/mL
- CC(=O)c1ccc(NC(=O)CN2CCCCCC2)cc1 — higher, > 41.2 µg/mL
- COc1ccc(CCNC(=O)c2ccccc2C(=O)NCCc2ccc(OC)cc2)cc1 — 16-fold lower, 2.2 µg/mL (≈ 5.09 µM)
- Cc1cccc(C)c1NC(=O)C1CC2CCC1C2 (stereo unspecified) — 2.7-fold lower, 12.6 µg/mL (≈ 51.8 µM)
- CCC(CC)NC(=O)C1CC(=O)N(CCc2ccc(F)cc2)C1 (stereo unspecified) — higher, > 48.1 µg/mL
- COC(=O)C1=C(Nc2cc(Cl)cc(Cl)c2)CSC1 — lower, < 0.7 µg/mL
- O=C(NC1CC1)c1sc2ccccc2c1Cl — 21-fold lower, 1.6 µg/mL (≈ 6.36 µM)
- O=C(O)c1cc(NS(=O)(=O)c2ccc(F)cc2)cc(NS(=O)(=O)c2ccc(F)cc2)c1 — higher, > 70.3 µg/mL
- O=C(NCCc1ccccc1)c1coc(=O)c(Br)c1 — 3.5-fold lower, 9.8 µg/mL (≈ 30.4 µM)
- Cc1cccc(C)c1NC(=O)CN1CCN(C(=O)c2ccc(OCc3cn4ccccc4n3)cc2)CC1 — higher, > 74.6 µg/mL
- Cc1sc2c3ccsc3ccc2[n+]1C.[I-] — within 1.5-fold, 36.3 µg/mL
- CSc1ccc(CN2CCSCC2)cc1 — 2-fold lower, 17 µg/mL (≈ 71 µM)
- COc1cccc(C2(O)CCN(CC(=O)NCC3CC3)CC2)c1 — higher, > 47.8 µg/mL
- CC(CCc1ccccc1)NC(=O)Cc1cccs1 (stereo unspecified) — within 1.5-fold, 36 µg/mL (≈ 132 µM)
- O=c1oc2ccccc2c(Nc2ccccc2)c1CN1CCCCC1 — within 1.5-fold, 44.1 µg/mL (≈ 132 µM)
- CCOC(=O)c1sc(-c2ccc(Cl)cc2)nc1O — within 1.5-fold, 40.8 µg/mL (≈ 144 µM)
- Nc1nc(SCC(=O)Nc2cccc([N+](=O)[O-])c2)n[nH]1 — higher, > 44.1 µg/mL
- Cc1cccc2nc(-c3ccco3)oc(=O)c12 — 1.6-fold lower, 21.6 µg/mL (≈ 95.1 µM)
- Cc1c(C(=O)NC2CC2)oc2ccccc12 — not separable, > 32.3 µg/mL
- Cc1cc(Cl)nc(Cl)c1C(=O)NC(=O)NCCC(C)C — within 1.5-fold, 34.7 µg/mL (≈ 109 µM)
- CCOc1ccc(N(CC(=O)N2CCCCCC2)S(=O)(=O)c2ccc(C)cc2)cc1 — within 1.5-fold, 23.6 µg/mL (≈ 54.8 µM)
- O=C(CSc1nc2ncc(Cl)cc2[nH]1)N1CCC(Cc2ccccc2)CC1 — 34-fold lower, 1 µg/mL (≈ 2.49 µM)
- CCOc1cccnc1Sc1ccccc1 — within 1.5-fold, 27.7 µg/mL (≈ 120 µM)
- CN(CC(=O)Nc1ccc(F)cc1Cl)Cc1cccs1 — 2.3-fold lower, 14.6 µg/mL (≈ 46.7 µM)
- NC(=S)NNc1cccc2cccnc12 — not separable, > 32.7 µg/mL
- CCOC(=O)C(=CNc1cc(C)ccc1[N+](=O)[O-])C(=O)OCC — lower, < 0.3 µg/mL
- S=C(NCc1ccco1)Nc1ccc2c(c1)OCCO2 — higher, > 43.6 µg/mL
- CC(C)(C)[C@]1(O)CCN2C[C@H]3c4ccccc4CCc4cccc(c43)[C@@H]2C1.Cl — 1.7-fold higher, 59.3 µg/mL
- Cc1ccc(C)c(N2CCN(CCN3CCCCC3)CC2)c1.Cl — within 1.5-fold, 36.5 µg/mL
- CCC1CCC(N2CCN(c3ccc(F)cc3)CC2)CC1 (stereo unspecified) — within 1.5-fold, 24.1 µg/mL (≈ 83 µM)
- C#CCn1c(-c2cccs2)nc2ccccc21 — higher, > 35.7 µg/mL
- C/C(=N/NC(=O)CNC(=O)c1cccs1)c1ccco1 — higher, > 43.7 µg/mL
- CCOC(=O)c1cc(C)sc1/N=C/C1C(=O)NC(=S)NC1=O — 7.3-fold lower, 4.7 µg/mL (≈ 13.8 µM)
- COc1cc(C(=O)NCCNC(=O)C2CCCNC2=O)cc(OC)c1OC (stereo unspecified) — higher, > 56.9 µg/mL
- Cc1cccc(OCCCn2c(CO)nc3ccccc32)c1 — higher, > 44.5 µg/mL
- Cc1ccc(NC(=O)Cn2cnc([N+](=O)[O-])c2)cc1C — higher, > 41.1 µg/mL
- N#CC1=C(N)OC2=C(C(=O)CCC2)C1c1cc2c(cc1Cl)OCO2 (stereo unspecified) — 2-fold lower, 17 µg/mL (≈ 49.3 µM)
- COc1ccc(C2NC(=S)NC3=C2N2CCC3CC2)cc1 (stereo unspecified) — higher, > 45.2 µg/mL
- O=C(COc1nncc2ccccc12)NCC(F)(F)F — higher, > 42.8 µg/mL
- CCOC(=O)c1c(C)oc2cc(Cl)c(O)c(CN(C)C)c12 — within 1.5-fold, 43.9 µg/mL (≈ 141 µM)
- O=C(CSc1cc(Cl)ccc1Cl)NCCN1C(=O)CSC1=O — higher, > 56.9 µg/mL
- O=C1Nc2ccc([N+](=O)[O-])cc2OC1CCN1CCCC1 (stereo unspecified) — higher, > 43.7 µg/mL
- Cc1ccc(Cn2ncc(C)c2N)o1 — not separable, > 28.7 µg/mL
- O=[N+]([O-])c1cccc2cn[nH]c12 — not separable, > 24.5 µg/mL
- Cc1ccc(Cn2ccsc2=NC(=O)COC(=O)C(C)C)cc1 — within 1.5-fold, 45.3 µg/mL (≈ 136 µM)
- CC(C)C(OC(=O)c1nsc(Cl)c1Cl)C(=O)NCc1ccccc1 (stereo unspecified) — 3.4-fold lower, 10 µg/mL (≈ 25.8 µM)
- Cc1cc(Br)ccc1NC(=O)CNC(=O)c1cnn(C)c1 — higher, > 52.7 µg/mL
- CC(C)CCN1CCN(Cc2ccc(C(F)(F)F)cc2)CC1CCO (stereo unspecified) — higher, > 53.8 µg/mL
- Cc1nc(-c2cc(-c3nc(-c4ccc(C(C)(C)C)cc4)no3)no2)cs1 — lower, < 0.2 µg/mL
- COc1cccc(NC(=O)CNC(=O)c2ccc(C)o2)c1 — higher, > 43.2 µg/mL
- C=CCC(=O)N1CCCC(CO)(Cc2ccc(F)cc2F)C1 (stereo unspecified) — within 1.5-fold, 41.8 µg/mL (≈ 135 µM)
- COc1ccc(NC(=O)c2ccc(NC(=O)c3ccncc3)cc2)cc1 — 43-fold lower, 0.8 µg/mL (≈ 2.3 µM)
- Cc1nc2c(C#N)cnn2c2c1CCN2CC1CCCO1 (stereo unspecified) — higher, > 42.5 µg/mL
- CC(C)CC(=O)C1=C(O)C(=O)N(Cc2ccccc2)C1c1ccccc1 (stereo unspecified) — within 1.5-fold, 47.3 µg/mL (≈ 135 µM)
- O=C1CCCCCN1CP(=O)(O)CN1CCCCCC1=O — within 1.5-fold, 46.1 µg/mL (≈ 146 µM)
- Cc1cccn2cc(CCNS(=O)(=O)c3cccs3)nc12 — within 1.5-fold, 45.6 µg/mL (≈ 142 µM)
- O=C(CCN=C1NS(=O)(=O)c2ccccc21)Nc1ccc(F)cc1Cl — higher, > 57.3 µg/mL
- CN1CC(C(=O)c2ccc(Cl)cc2)C(c2ccccc2F)C1 (stereo unspecified) — higher, > 47.7 µg/mL
- CCc1c(C)sc(NC(=S)Nc2cccnc2)c1C(=O)OC — higher, > 50.3 µg/mL
- c1ccc(NCc2ccccn2)cc1 — within 1.5-fold, 24.6 µg/mL (≈ 134 µM)
- O=C(CN1CCCCC1)NC(=O)NC1CCCCC1 — higher, > 40.1 µg/mL
- O=C(/C(=C(\O)c1ccccc1)c1nc2ccccc2[nH]1)c1ccccc1 — lower, < 0.4 µg/mL
- CN1CCN(c2nc(-c3ccccc3)ncc2S(C)(=O)=O)CC1 — higher, > 49.9 µg/mL
- O=C(NCCCCNC(=O)C(F)(F)F)C(F)(F)F — higher, > 42 µg/mL
- CC(=O)Nc1c(O)nc(C)[nH]c1=O — not separable, > 27.5 µg/mL
- Cc1ccc2nc(NC(=O)c3ccccc3F)sc2c1 — lower, < 0.3 µg/mL
- CC1(C)OC(=O)C(=CNC(CO)C(=O)O)C(=O)O1 (stereo unspecified) — higher, > 38.9 µg/mL
- Cc1ccccc1CC(=O)NCC1CCCCC1 — 2.7-fold lower, 12.9 µg/mL (≈ 52.6 µM)
- Cc1cc(C(=O)COC(=O)/C=C/c2ccc(F)cc2)c(C)n1C — 5.5-fold lower, 6.2 µg/mL (≈ 19.7 µM)
- O=C(O)Cc1c(C(=O)O)[nH]c2ccc(C(=O)O)cc12 — higher, > 39.5 µg/mL
- Cc1ccc(S(=O)(=O)N2CCN(c3ncccn3)CC2)c(C)c1 — 19-fold lower, 1.8 µg/mL (≈ 5.41 µM)
- Cc1cc(C)n2nc(C(=O)OCC(=O)c3ccccc3)nc2n1 — higher, > 46.5 µg/mL
- Cc1ccc2nc(CCc3ccc(N)cc3)[nH]c2c1.Cl — higher, > 48.6 µg/mL
- Cc1cc(=O)oc(C)c1C(=O)NCCN(C)Cc1ccccc1 — higher, > 47.2 µg/mL
- CC(=O)c1c(O)c2ccccc2n(C2CCCCC2)c1=O — 24-fold lower, 1.4 µg/mL (≈ 4.91 µM)
- CC1(C)Nc2ccccc2N(Cc2ccc([N+](=O)[O-])cc2)C1=O — higher, > 46.7 µg/mL
- CC1CN(C(=O)CS(=O)(=O)Cc2ccccc2)CC(C)O1 (stereo unspecified) — higher, > 46.7 µg/mL
- S=C1NCN(Cc2ccco2)CN1c1ccccc1 — higher, > 41 µg/mL
- CCOc1c(Nc2cccc(Cl)c2)c(=O)c1=O — higher, > 37.8 µg/mL
- CC(=O)c1cccc(NC(=O)C(C)OC(=O)C2=NNC(=O)CC2)c1 (stereo unspecified) — higher, > 49.7 µg/mL
- CC(=O)NCCN1C(=O)S/C(=C\c2cccs2)C1=O — higher, > 44.5 µg/mL
- CC(C)C(=O)Nc1csc(C(F)(F)F)c1-c1ccccc1 — 2.7-fold lower, 12.8 µg/mL (≈ 40.8 µM)
- Cc1ccc(NS(=O)(=O)c2ccc3[nH]c(=O)c(=O)[nH]c3c2)cc1Cl — 3-fold lower, 11.5 µg/mL (≈ 31.4 µM)
- CCCCNc1cc(C(=O)O)cc(S(N)(=O)=O)c1Oc1ccccc1 — higher, > 54.7 µg/mL
- Cc1cccc(C(=O)NCC(=O)OCC(=O)c2ccc(Br)s2)c1 — higher, > 59.4 µg/mL
- O=[N+]([O-])c1cccc2c(S(=O)(=O)N3CCCCC3)cccc12 — 3.6-fold lower, 9.5 µg/mL (≈ 29.7 µM)
